Columns and labels:
[1] = Body weight of mice on administration of creatine and phenylcreatine; assay type: in vivo; settings: 20 days daily into the stomach, creatine 0.3 mg per gram, phenylcreatine 50 mg per kg, control 6.4%
Protocol: In order to find out whether phenylcreatine is a functional analogue of creatine, and also how much its effect is related to the strength of creatine, the functional state of the mice was assessed, namely, the body weight was measured, activity and endurance in the test on white mongrel mice were assessed—males weighing 18-22 g.
Two experimental groups of mice and one control group (10 mice in each group) were selected. Initially, the animals were of equal mass. The animals were kept in accordance with the rules adopted by the European Convention for the Protection of Vertebrates used for experimental and other purposes (European Convention for the Protection of Vertebrates used for Experiments or for Other Scientific Purposes (EST No. 123), Strasbourg, 18 March 1986, M., 1990, 12 pp.). Animals were kept in standard vivarium conditions. The animals were killed by decapitation in accordance with the “Rules for carrying out work using experimental animals”, approved by order of the Ministry of Health of the USSR No. 742 of 13 Nov. 1984 (Bolshakov O P, Neznanov N G, Babakhnyan R V Didactic and ethical aspects of research on biomodels and on laboratory animals//Qualitative clinical practice. 2002. No. 1. P.58-61).
Within 20 days, the animals received an aqueous solution of creatine in a dosage of 0.3 mg per gram of weight. […]

[2] = Stability of phenylcreatine compared to creatine in blood serum (RP-HPLC peak areas); assay type: in vitro ADME, human
Protocol: The study of the stability of phenylcreatine and creatine in aqueous solution and in human blood was carried out as follows. For the preparation of solutions of test substances on an analytical balance the exactly weighed phenylcreatine and creatine were taken. The calculated amount of double-distilled water was added to them to obtain a concentration of 1 mg/ml. A part of the solution was diluted 10 times, and the sample was immediately analyzed. Further, that solution was kept at room temperature and after 3 hours the analysis was repeated. Further according to the method described in Dunnett, Harris & Orme (1991) Reverse phase ion-pairing high performance liquid chromatography of phosphocreatine, creatine and creatinine in equine muscle. Scand. J. Clin. Lab. Invest. 51, 137-141, page 139, aliquot (c), creatinine, creatine and phosphocreatine were removed from the samples used for obtaining of the blood serum for mixing, to obtain more accurate results. 1 ml of water or prepared according to the method above blood serum was added to 200 μl of a solution in water of initial substance with a concentration of 2-3 mg/ml, shaken and a sample of 200 μl volume was immediately taken and initial concentration was analyzed. Then the solution was placed in a vibration thermostat at 37° C. and an aliquot of 200 μl was taken in 0.5, 1 and 3 hours of incubation. 20 μl of a 10% solution of trichloroacetic acid was added to the selected sample and kept for 15 min at a temperature of minus 24° C., centrifuged at 6000 g for 5 min to precipitate the plasma proteins, supernatant was collected and its analysis was conducted. The study of the stability of phenylcreatine compared to creatine in an aqueous solution and blood was carried out using reversed-phase HPLC using a chromatographic system Agilent 1220 Infinity LC System (USA). To assess the stability of the analytes, the peak areas of the compounds were compared at the beginning of the experiment and at selected intervals (Table 2).

[3] = 0 h, initial, peak area relative to the beginning of the experiment

Stability in a blood serum [2, 3] | Stability in a blood serum ([2]; 0.5 h incubation at 37° C.) | Stability in a blood serum ([2]; 1 h incubation at 37° C.) | Stability in a blood serum ([2]; 3 h incubation at 37° C.) | Concentration in the blood (in words) ([2]; for 3 hours) | Compound | Weight gain [1]
100% | 98% | 67% | 52% | – | CN(CC(=O)O)C(=N)N [creatine, 2-(methylguanine)-ethane acid] | 9%
100% | 100% | 99% | 96% | remained practically unchanged | N=C(N)N(CC(=O)O)Cc1ccccc1 [phenylcreatine, N-benzyl-N-carbamimidoylglycine] | 15.4%
